The numbers were not newly measured in patent US20070259329A1, “Anergy-inducing cellular composition” (BioVerde. Inc., priority 2006, published 2007), which cites them from elsewhere.

Data set [1] relates to T-cells. The following applies: Sanbongi et al. (1997); cited from earlier work.
Data set [2] has as its system antibody-stimulated peripheral blood mononuclear cells. Conditions: Falchetti et al. (2001), cited from earlier work.

Structures are written as SMILES. Where two headings read alike, the source gives them in different places.

For the molecule `Oc1cc(O)c2c(c1)O[C@H](c1ccc(O)c(O)c1)[C@H](O)C2` [(−)-epicatechin], the “proliferative responses of T-cells” value in data set [1] was “inhibited”.
Take `Oc1ccc(C=Cc2cc(O)cc(O)c2)cc1` [resveratrol]: the cytokine productions entry in data set [2] (low concentrations (5-10 ppm)) was “inhibited”; in data set [2] (still lower concentrations (0.625-2.5 ppm)), “enhanced”.
